Patent US12133899B2 (priority 2020, dated 2024)

Tests used:
in vivo = format: in vivo, rats; settings: rat; for drop of concentration in liver / drop of concentration in plasma: 2 weeks
Description: A single dose PK study of ALC-0315 and […] following intravenous (IV) bolus injection of a nanparticle formulation in rats was conducted to assess the PK and metabolism of lipid excipients ALC-0315 and ALC-0159.

luciferase expression = format: in vivo, mice; settings: ALC-0315/DSPC/CHOL/ALC-0159 prototype; IV
[1] = format: in vitro ADME, mice, rats, monkeys, humans; settings: blood, microsomes, S9, hepatocytes; rat samples
Description: In vitro metabolism of ALC-0315 and ALC-0159 was evaluated in blood, liver microsomes, S9 fractions, and hepatocytes from mice, rats, monkeys, and humans. In vivo metabolism was examined in rat plasma, urine, faeces, and liver samples from the PK study. […] ALC-0315 and ALC-0159 are apparently metabolised by hydrolytic metabolism of the ester and amide functionalities, respectively, and this hydrolytic metabolism is observed across the species evaluated.

Row | Compound | unchanged material in urine or faeces (in vivo) | apparent terminal t½ in plasma and liver (in vivo; IV bolus) [h] | drop of concentration in liver (in vivo; IV bolus) [fold] | drop of concentration in plasma (in vivo; IV bolus) | in vivo potency of Luc RNA LNP vs internal benchmark ALC-0218 (luciferase expression) | metabolism in vitro and in vivo [1] | half-life (in vivo; in vivo, IV bolus, read-out: apparent terminal t½ in plasma and liver) [h] | eliminated unchanged in faeces (in vivo) [%]
1 | ((4-hydroxybutyl)azanediyl)bis(hexane-6,1-diyl)bis(2-hexyldecanoate) [ALC-0315] | little to no unchanged material was detected | 140 to 190 | ~4 | approximately 7000 fold | improved potency | relatively slowly | – | –
2 | CCCCCCCCCCCCCCN(CCCCCCCCCCCCCC)C(=O)COCCOCCOCCOCCOCCOCCOCCOCCOCCOCCOCCOCCOCCOCCOCCOCCOCCOCCOCCOCCOCCOCCOCCOCCOCCOCCOCCOCCOCCOCCOCCOCCOCCOCCOCCOCCOCCOCCOCCOCCOCCOCCOCCOCCOCCOC [ALC-0159, 2-[(polyethylene glycol)-2000]-N,N-ditetradecylacetamide] | – | – | > 250 | approximately 8000 fold | – | relatively slowly | 48 to 72 | 50
